Measurements taken from patent US10040810B2, “Derivatives of bisacylphosphinic acid, their preparation and use as photoinitiators” (priority 2012, dated 2018).
Values after ≈ are worked out from the molar mass of the structure shown.

Experiment: Solubility in water
Type: physicochemical
Description: 50 mg of the photoinitiator of example 1 is added to 1 ml of distilled water and the suspension stirred at room temperature for 60 minutes. Non-dissolved material is filtered off, dried in vacuo and weighed. The solubility is approximately 5 mg/ml.

solubility at 60 min (thermodynamic from solid, distilled water, room temperature, 60 minutes stirring): ~5 mg/mL (≈ 14 mM) | solubility in water (in words) (water, preparation of formulation 4c): low solubility
SMILES: Cc1cc(C)c(C(=O)P(=O)(O)C(=O)c2c(C)cc(C)cc2C)c(C)c1 [Example 1, bis(2,4,6-trimethyl-benzoyl)-phosphinic acid]
